In publication PMC2692652 (Biochemistry, 2009):

Tests used:
Native M. tb PGDH [1] = molecular target: T1, Native M. tb PGDH (Mycobacterium tuberculosis, UniProt P9WNX3); format: biochemical; details: high HPAP level where substrate inhibition is significant, pH 7.5
Human PGDH = Human PGDH (Homo sapiens, UniProt O43175); assay: Inhibition of human PGDH; format: biochemical; details: unpublished observation
M. tb PGDH [2] = details: cited from earlier work
M. tb PGDH [3] = details: cited from earlier work; remark: listed apart in the source
Native M. tb PGDH [4] = molecular target: T1, Native M. tb PGDH; assay: Stopped-flow time course of NADH turnover with kinetic simulation to Scheme 2; format: biochemical; details: for k+i / k-i: from simulation
M. tb PGDH [5] = assay: Transient binding of NADH to the enzyme in the absence of substrate; set-up: species or system Mycobacterium tuberculosis; details: read-out: Kd of NADH at the second (anion-binding) site; calculated from the rates of NADH binding determined in the absence of substrate
Native M. tb PGDH [6] = molecular target: T1, Native M. tb PGDH; format: biochemical; details: HPAP 400 μM, NADH varied, 200 mM potassium phosphate, pH 7.5
Native M. tb PGDH [7] = molecular target: T1, Native M. tb PGDH; format: binding; details: no substrate, excitation 295 nm, fluorescence 420 nm, pH 7.5
Native M. tb PGDH [8] = molecular target: T1, Native M. tb PGDH; details: read-out: Ki, HPAP (substrate inhibition); cited from earlier work
[9] = step ES + N = ESN (NADH to active site)
[10] = step ES + N = NES (NADH to second site)
[11] = step ESN + N = NESN (NADH to second site)
[12] = step SES + N = SESN (NADH to active site)

T1 sequence (P9WNX3 whole entry): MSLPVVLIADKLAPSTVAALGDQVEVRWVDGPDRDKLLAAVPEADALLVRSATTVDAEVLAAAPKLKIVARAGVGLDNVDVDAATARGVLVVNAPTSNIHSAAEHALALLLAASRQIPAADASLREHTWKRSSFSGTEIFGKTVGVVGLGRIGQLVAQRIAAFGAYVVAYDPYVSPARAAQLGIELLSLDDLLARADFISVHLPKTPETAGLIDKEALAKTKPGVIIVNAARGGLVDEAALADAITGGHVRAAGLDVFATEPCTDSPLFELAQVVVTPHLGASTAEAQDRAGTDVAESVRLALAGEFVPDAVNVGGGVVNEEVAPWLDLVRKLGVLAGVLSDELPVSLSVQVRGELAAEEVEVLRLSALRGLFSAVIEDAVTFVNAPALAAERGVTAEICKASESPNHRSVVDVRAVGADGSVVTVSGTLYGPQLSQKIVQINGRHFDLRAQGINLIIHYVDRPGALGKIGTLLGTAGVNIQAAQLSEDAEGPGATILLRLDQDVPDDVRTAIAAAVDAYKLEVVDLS
Chain of Human PGDH (O43175 whole entry): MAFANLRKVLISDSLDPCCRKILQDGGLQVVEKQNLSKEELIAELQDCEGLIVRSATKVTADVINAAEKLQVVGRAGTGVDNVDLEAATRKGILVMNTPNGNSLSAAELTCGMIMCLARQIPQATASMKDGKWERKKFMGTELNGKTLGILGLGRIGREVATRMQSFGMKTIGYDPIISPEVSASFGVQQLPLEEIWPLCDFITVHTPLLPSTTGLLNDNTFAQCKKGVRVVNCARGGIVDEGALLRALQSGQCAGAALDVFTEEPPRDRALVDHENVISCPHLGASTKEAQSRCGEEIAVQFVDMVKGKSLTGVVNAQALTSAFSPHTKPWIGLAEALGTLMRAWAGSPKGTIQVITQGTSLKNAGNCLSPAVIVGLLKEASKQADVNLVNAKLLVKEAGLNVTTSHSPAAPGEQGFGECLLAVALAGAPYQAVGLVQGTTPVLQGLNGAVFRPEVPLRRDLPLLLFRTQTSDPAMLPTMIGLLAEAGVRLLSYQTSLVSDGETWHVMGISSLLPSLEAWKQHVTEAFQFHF

Molecule: N[C@@H](CO)C(=O)O [L-serine]
- n (Hill coefficient), serine inhibition, High Substrate (Native M. tb PGDH [1]): 1.5 ± 0.1
- Inhibition by L-serine (Human PGDH): not inhibited

Molecule: O=C(O)C(O)C(O)C(=O)O (stereo not shown) [tartrate]
- Effect of tartrate binding to the anion-binding site on rate of catalysis (M. tb PGDH [2]): does not effect the rate of catalysis

Molecule: NADH
- k+i (M. tb PGDH [3]): 0.37 ^c μM^-1s^-1
- k-i (M. tb PGDH [3]): 0.22 ^c s^-1
- k+i (Native M. tb PGDH [4]; [9]): 4.09e+08 M⁻¹ s⁻¹
- k-i (Native M. tb PGDH [4]; [9]): 70 s⁻¹
- k+i (Native M. tb PGDH [4]; [10]): 0 M⁻¹ s⁻¹
- k-i (Native M. tb PGDH [4]; [10]): 0 s⁻¹
- k+i (Native M. tb PGDH [4]; [11]): 0 M⁻¹ s⁻¹
- k-i (Native M. tb PGDH [4]; [11]): 0 s⁻¹
- k+i (Native M. tb PGDH [4]; step NES + N = NESN (NADH to active site)): 7.59e+08 M⁻¹ s⁻¹
- k+i (Native M. tb PGDH [4]; [12]): 190000 M⁻¹ s⁻¹
- k-i (Native M. tb PGDH [4]; [12]): 3 s⁻¹
- Kd (M. tb PGDH [5]): ~0.6 µM
- K0.5, Activity vs NADH (Native M. tb PGDH [6]): 106 ± 5 µM
- n (Hill coefficient), Activity vs NADH (Native M. tb PGDH [6]): 2.5 ± 0.2
- K0.5, FRET vs NADH (Native M. tb PGDH [7]): 3.2 ± 0.1 µM
- n (Hill coefficient), FRET vs NADH (Native M. tb PGDH [7]): 1.6 ± 0.1

Molecule: hydroxypyruvic acid phosphate [HPAP]
- Kd (Native M. tb PGDH [4]; read-out: Kd for HPAP at the second (anion-binding) site): ~8 µM
- Ki (Native M. tb PGDH [8]): 950 ± 120 µM
- Substrate inhibition by HPAP (Human PGDH): displays substrate inhibition
